The results in this text go back to paper PMC5522311, “Adapting AlphaLISA high throughput screen to discover a novel small-molecule inhibitor targeting protein arginine methyltransferase 5 in pancreatic and colorectal cancers” (Oncotarget, 2017).

The target of this assay is T1, protein arginine methyltransferase 5 (PRMT5) (Homo sapiens, UniProt O14744).
T1 construct: Flag-tagged WT-PRMT5 purified from 293 cells with anti-Flag-M2 beads
The assay is described as follows: AlphaLISA methyltransferase assay (biotinylated histone H4 R3 symmetric dimethylation). Format: biochemical. In general terms: In Alpha technology, singlet oxygen from a donor bead excites a nearby acceptor bead.

Structures are written as SMILES.

T1 sequence (O14744 2-637): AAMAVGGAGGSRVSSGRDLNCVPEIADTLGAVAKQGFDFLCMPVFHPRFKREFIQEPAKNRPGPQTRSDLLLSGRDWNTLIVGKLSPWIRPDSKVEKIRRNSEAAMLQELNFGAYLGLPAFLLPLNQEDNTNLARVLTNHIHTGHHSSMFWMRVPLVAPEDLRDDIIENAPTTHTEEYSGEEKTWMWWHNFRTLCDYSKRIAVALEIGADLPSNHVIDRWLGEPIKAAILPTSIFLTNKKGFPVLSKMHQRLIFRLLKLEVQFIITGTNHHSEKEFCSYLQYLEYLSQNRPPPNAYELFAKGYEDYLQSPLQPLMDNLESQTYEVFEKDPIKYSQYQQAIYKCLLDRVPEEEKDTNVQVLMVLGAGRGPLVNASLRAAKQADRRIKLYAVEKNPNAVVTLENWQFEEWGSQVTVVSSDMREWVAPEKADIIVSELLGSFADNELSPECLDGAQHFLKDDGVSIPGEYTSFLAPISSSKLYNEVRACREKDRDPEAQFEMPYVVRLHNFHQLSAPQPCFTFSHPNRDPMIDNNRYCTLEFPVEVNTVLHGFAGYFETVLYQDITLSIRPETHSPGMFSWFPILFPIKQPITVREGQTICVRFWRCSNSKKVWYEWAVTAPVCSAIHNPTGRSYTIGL

Usually IC50 stands for the midpoint of a concentration-inhibition curve. In turn, `Cc1ccc(Nc2nc(NCCN(C)C)nc3c2cnn3-c2ccccc2)cc1C` [PR5-LL-CM01] registered an IC50 of 7.5 µM.
